Reference: ChEMBL document CHEMBL4814073, “Ring-opening of five-membered heterocycles conjugated 4-isopropylresorcinol scaffold-based benzamides as HSP90 inhibitors suppressing tumor growth in vitro and in vivo” (Eur J Med Chem, 2021)
Active and inactive are the calls of the source. The calls are words filed in the database; no cut-off is given here.

Tests used:
Cytochrome P450 2D6 = Cytochrome P450 2D6 (Homo sapiens, UniProt P10635); assay: Inhibition of CYP2D6 in human liver microsomes using dextromethorphan as substrate by LC-MS/MS analysis; type: ADME
Chain of Cytochrome P450 2D6 (P10635 whole entry): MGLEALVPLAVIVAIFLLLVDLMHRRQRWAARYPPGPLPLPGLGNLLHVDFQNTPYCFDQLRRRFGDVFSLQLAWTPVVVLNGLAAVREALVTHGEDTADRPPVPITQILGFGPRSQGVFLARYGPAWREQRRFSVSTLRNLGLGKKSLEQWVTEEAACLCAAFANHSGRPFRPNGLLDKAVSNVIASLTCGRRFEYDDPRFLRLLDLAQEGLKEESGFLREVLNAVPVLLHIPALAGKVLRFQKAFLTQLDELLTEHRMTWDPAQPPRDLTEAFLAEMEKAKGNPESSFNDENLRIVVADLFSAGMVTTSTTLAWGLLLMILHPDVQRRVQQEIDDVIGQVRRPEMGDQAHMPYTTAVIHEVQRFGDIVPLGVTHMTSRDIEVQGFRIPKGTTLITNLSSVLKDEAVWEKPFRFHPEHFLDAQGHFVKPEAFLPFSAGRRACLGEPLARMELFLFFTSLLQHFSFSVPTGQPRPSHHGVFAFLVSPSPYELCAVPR

CYP1A2 = molecular target: T1, CYP1A2 (Homo sapiens, UniProt P05177); assay: Inhibition of CYP1A2 in human liver microsomes using phenacetin as substrate at 50 uM by LC-MS/MS analysis; type: ADME; details: probe phenacetin
T1 sequence (P05177 whole entry): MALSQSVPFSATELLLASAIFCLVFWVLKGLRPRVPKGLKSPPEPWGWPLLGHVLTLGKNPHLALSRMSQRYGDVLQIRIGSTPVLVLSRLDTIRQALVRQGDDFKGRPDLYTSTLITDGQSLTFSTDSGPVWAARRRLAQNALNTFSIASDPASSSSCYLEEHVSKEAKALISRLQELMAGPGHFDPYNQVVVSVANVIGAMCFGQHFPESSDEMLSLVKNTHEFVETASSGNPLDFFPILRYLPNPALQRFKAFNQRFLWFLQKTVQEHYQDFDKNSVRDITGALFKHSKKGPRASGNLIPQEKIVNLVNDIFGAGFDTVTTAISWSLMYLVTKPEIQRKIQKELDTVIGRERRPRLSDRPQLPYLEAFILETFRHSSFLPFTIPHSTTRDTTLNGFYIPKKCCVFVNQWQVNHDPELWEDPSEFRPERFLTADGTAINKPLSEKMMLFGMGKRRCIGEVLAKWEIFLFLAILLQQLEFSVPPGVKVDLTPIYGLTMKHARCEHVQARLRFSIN

CYP2D6 = CYP2D6 (Homo sapiens, UniProt P10635); assay: Inhibition of CYP2D6 in human liver microsomes using dextromethorphan as substrate at 50 uM by LC-MS/MS analysis; type: ADME; details: probe dextromethorphan
Chain of CYP2D6 (P10635 whole entry): as the sequence (P10635 whole entry) above

NCI-H1975 = assay: Antitumor activity against human NCI-H1975 cells xenografted in BALB/c mouse assessed as tumor growth inhibition at 50 mg/kg, po treated daily relative to control; details: read-out: TGI
A549 [1] = assay: Induction of apoptosis in human A549 cells assessed as increase in cleaved caspase 3 protein expression at 0.3 to 3 uM measured after 18 hrs by western blot analysis; type: functional, cell-based; details: dose 0.3-3 µM
A549 [2] = assay: Antitumor activity against human A549 cells xenografted in BALB/c mouse assessed as reduction in tumor growth inhibition at 50 mg/kg, po treated daily relative to control; details: read-out: TGI
[3] = Metabolic stability in human hepatocytes assessed as Intrinsic clearance by LC-MS/MS analysis; type: ADME, cell-based, Hepatocyte
A549 [4] = assay: Induction of cell cycle arrest in human A549 cells assessed as decrease in cdc2 expression at Tyr15 at 0.3 uM incubated for 24 hrs by Western blot analysis; type: functional, cell-based
A549 [5] = assay: Induction of apoptosis in human A549 cells assessed as upregulation of p53 protein expression at 0.3 uM incubated for 24 hrs by Western blot analysis; type: functional, cell-based
[6] = Clearance in Sprague-Dawley rat at 2 mg/kg, iv measured after 1 hrs by LC-MS/MS analysis; type: ADME, organism-based; details: in vivo
Cytochrome P450 1A2 = molecular target: T2, Cytochrome P450 1A2 (Homo sapiens, UniProt P05177); assay: Inhibition of CYP1A2 in human liver microsomes using phenacetin as substrate by LC-MS/MS analysis; type: ADME
T2 sequence (P05177 whole entry): T1 sequence (P05177 whole entry)

hERG (KCNH2) = hERG (KCNH2) (Homo sapiens, UniProt Q12809); assay: Inhibition of human ERG stably expressed in HEK293 cells at 10 uM measured after 60 mins by [3H]]Astemizole binding assay; type: cell-based; details: HEK293 cells stably expressing hERG, probe [3H]astemizole
Chain of hERG (KCNH2) (Q12809 whole entry): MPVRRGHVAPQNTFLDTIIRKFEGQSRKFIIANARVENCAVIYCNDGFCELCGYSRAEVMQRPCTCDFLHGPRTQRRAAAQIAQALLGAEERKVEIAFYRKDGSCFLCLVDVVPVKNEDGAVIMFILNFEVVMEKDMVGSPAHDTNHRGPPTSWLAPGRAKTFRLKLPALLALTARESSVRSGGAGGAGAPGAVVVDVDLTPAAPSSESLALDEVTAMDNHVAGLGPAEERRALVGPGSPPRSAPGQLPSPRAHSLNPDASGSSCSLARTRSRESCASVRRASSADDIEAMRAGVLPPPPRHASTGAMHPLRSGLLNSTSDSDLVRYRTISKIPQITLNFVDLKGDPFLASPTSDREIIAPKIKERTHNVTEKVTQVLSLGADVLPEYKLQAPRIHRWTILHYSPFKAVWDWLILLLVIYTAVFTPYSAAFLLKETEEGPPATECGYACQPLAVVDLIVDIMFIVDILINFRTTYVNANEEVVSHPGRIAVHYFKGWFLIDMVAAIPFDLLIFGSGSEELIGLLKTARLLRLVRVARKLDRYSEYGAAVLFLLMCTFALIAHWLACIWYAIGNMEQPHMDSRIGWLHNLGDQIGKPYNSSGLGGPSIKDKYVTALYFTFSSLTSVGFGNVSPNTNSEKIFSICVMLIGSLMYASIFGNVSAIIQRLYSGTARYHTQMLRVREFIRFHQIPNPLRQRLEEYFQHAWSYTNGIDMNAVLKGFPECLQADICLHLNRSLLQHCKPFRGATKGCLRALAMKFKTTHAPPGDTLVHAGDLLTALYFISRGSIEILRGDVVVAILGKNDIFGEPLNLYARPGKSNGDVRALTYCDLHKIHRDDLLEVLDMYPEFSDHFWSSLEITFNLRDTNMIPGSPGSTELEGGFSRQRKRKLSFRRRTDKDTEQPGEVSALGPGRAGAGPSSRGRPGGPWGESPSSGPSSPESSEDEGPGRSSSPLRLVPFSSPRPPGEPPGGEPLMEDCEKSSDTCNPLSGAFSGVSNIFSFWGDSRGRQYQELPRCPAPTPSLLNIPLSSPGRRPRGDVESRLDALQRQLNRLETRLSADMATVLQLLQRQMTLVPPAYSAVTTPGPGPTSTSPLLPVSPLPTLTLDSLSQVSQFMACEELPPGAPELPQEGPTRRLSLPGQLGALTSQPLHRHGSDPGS

[7] = Metabolic stability in Sprague-Dawley rat hepatocytes assessed as Intrinsic clearance by LC-MS/MS analysis; type: ADME, cell-based, Hepatocyte
[8] = Hepatic clearance in Beagle dog by LC-MS/MS analysis; type: ADME, tissue-based, Canis lupus familiaris, Hepatocyte; details: hepatocytes
Heat shock protein HSP90 [9] = molecular target: T3, Heat shock protein HSP90 (Homo sapiens, UniProt P07900+P08238); assay: Inhibition of HSP90 in human A549 cells assessed as downregulation of Src expression incubated for 24 hrs by immunoblot analysis; type: cell-based; details: dose microM <=3, time 24.0 hrs
A549 [10] = assay: Induction of cell cycle arrest in human A549 cells assessed as increases in cdc2 expression at Thr161 at 0.3 uM incubated for 24 hrs by Western blot analysis; type: functional, cell-based
[11] = Tmax in Sprague-Dawley rat at 20 mg/kg, po measured after 1 hrs by LC-MS/MS analysis; type: ADME, organism-based; details: in vivo
[12] = Metabolic stability in human hepatocytes assessed as half life by LC-MS/MS analysis; type: ADME, cell-based, Hepatocyte
A549 [13] = assay: Induction of apoptosis in human A549 cells assessed as increase in cleaved caspase 6 protein expression at 0.3 to 3 uM measured after 18 hrs by western blot analysis; type: functional, cell-based; details: dose 0.3-3 µM
[14] = Metabolic stability in Sprague-Dawley rat hepatocytes assessed as half life by LC-MS/MS analysis; type: ADME, cell-based, Hepatocyte
A549 [15] = assay: Induction of apoptosis in human A549 cells assessed as increase in PARP cleavage at 0.3 to 3 uM measured after 18 hrs by western blot analysis; type: functional, cell-based; details: dose 0.3-3 µM
A549 [16] = assay: Antitumor activity against human A549 cells xenografted in BALB/c mouse assessed as tumor growth delay at 25 mg/kg, po treated daily relative to control
[17] = Half life in Sprague-Dawley rat at 20 mg/kg, po measured after 1 hrs by LC-MS/MS analysis; type: ADME, organism-based; details: in vivo
[18] = Metabolic stability in Beagle dog hepatocytes assessed as Intrinsic clearance by LC-MS/MS analysis; type: ADME, cell-based, Canis lupus familiaris, Hepatocyte
[19] = AUC (0 to t) in Sprague-Dawley rat at 20 mg/kg, po measured after 1 hrs by LC-MS/MS analysis; type: ADME, organism-based; parameters: route oral, time 1 hrs, dose 20 mg/kg; details: in vivo
661W = assay: Cytotoxicity against mouse 661W cells by MTT based vision related toxicity assay; type: cell-based
[20] = Cmax in Sprague-Dawley rat at 20 mg/kg, po measured after 1 hrs by LC-MS/MS analysis; type: ADME, organism-based; parameters: route oral, dose 20 mg/kg, time 1 hrs; details: in vivo
A549 [21] = assay: Induction of cell cycle arrest in human A549 cells assessed as decrease in cdc25c expression at Ser216 at 0.3 uM incubated for 24 hrs by Western blot analysis; type: functional, cell-based
A549 [22] = assay: Inhibition of MAPK signaling pathway in human A549 cells at 3 uM incubated for 24 hrs by immunoblot analysis; type: cell-based
[23] = Half life in Sprague-Dawley rat at 2 mg/kg, iv measured after 1 hrs by LC-MS/MS analysis; type: ADME, organism-based; details: in vivo
[24] = Volume of distribution at steady state in Sprague-Dawley rat at 2 mg/kg, iv measured after 1 hrs by LC-MS/MS analysis; type: ADME, organism-based; details: in vivo, read-out: Vdss
Heat shock protein HSP90 [25] = molecular target: T3, Heat shock protein HSP90; assay: Inhibition of HSP90 in human A549 cells assessed as downregulation of Src expression at 0.3 uM by immunoblot analysis; details: time hrs <=24, TDE = time-dependent effect
[26] = AUC (0 to infinity) in Sprague-Dawley rat at 2 mg/kg, iv measured after 1 hrs by LC-MS/MS analysis; type: ADME, organism-based; parameters: route intravenous, dose 2 mg/kg, time 1 hrs; details: in vivo
[27] = Hepatic clearance in CD1 mouse by LC-MS/MS analysis; type: ADME, tissue-based, Hepatocyte; details: hepatocytes

CCN(C(=O)c1cc(C(C)C)c(O)cc1O)c1cccnc1
IC50 (Cytochrome P450 2D6): > 50 µM | inhibition at 50 µM (CYP1A2): 50.6% | inhibition at 50 µM (CYP2D6): 84% | inhibition in vivo at 50 mg/kg (NCI-H1975): 34.3% | Activity (A549 [1]): Active | inhibition in vivo at 50 mg/kg (A549 [2]): 46.9% | CLint [3]: 55.3 mL/min/kg | Activity (A549 [4]): Active | Activity (A549 [5]): Active | clearance [6]: 73.2 mL/min/kg | IC50 (Cytochrome P450 1A2): > 50 µM | inhibition at 1 h, 10 µM (hERG (KCNH2)): -18% | CLint [7]: 751 mL/min/kg | CLhep predicted [8]: 25 mL/min/kg | inhibition (Heat shock protein HSP90 [9]): Dose-Dependent Effect | Activity (A549 [10]): Active | Tmax [11]: 15 min | half-life [12]: 67.6 min | Activity (A549 [13]): Active | half-life [14]: 11.2 min | Activity (A549 [15]): Active | Activity (A549 [16]): 41% | half-life [17]: 984 min | CLint [18]: 119 mL/min/kg | AUCt [19]: 737 ng·h/mL | Activity (661W): > 10 µM | Cmax [20]: 40.5 ng/mL | Activity (A549 [21]): Active | inhibition (A549 [22]): Dose-Dependent Effect | half-life [23]: 174 min | Vd [24]: 4.59 L/kg | inhibition (Heat shock protein HSP90 [25]): Tde | AUC [26]: 456 ng·h/mL | CLhep predicted [27]: 87.5 mL/min/kg
